From patent US8287845B2, “Hair-binding peptides” (E I du Pont de Nemours and Company, priority 2008, dated 2012)

Details: biotinylated peptide in TBST with 1 mg/mL BSA, 1 hour at room temperature, streptavidin-HRP/TMB, A450; MB50 calculated from Scatchard plots
Method: The MB50 provides an indication of the strength of the binding interaction or affinity of the components of the complex.
Then, the streptavidin-horseradish peroxidase (HRP) conjugate (Pierce Chemical Co., Rockford, Ill.) was added to each well (1.0 μg per well), and incubated for 1 h at room temperature, followed by 6 times of washes with TBST. […] The results were plotted as A450 versus the concentration of peptide using GraphPad Prism 4.0 (GraphPad Software, Inc., San Diego, Calif.).

Substance | MB50 [nM]
RRSMSLRMLTRGIKWSAMAYLASRWIL-K(biotin)-NH2 [CXH-W3] | 72
SLRRRWTTFGKILRRWTLPTAMLLVMM-K(biotin)-NH2 [CXH-W4] | 21
